Results reported in publication PMC10746543, “Design principles for cyclin K molecular glue degraders” (Nature Chemical Biology, 2023).
“And” between values parts separate entries of the source, which are not always exact repeats. Identical values can stand only once. Like-named read-outs stand apart in the source and are kept apart here.

Tests used:
[1] = tested on: cyclin K–eGFP degradation reporter; assay: Cyclin K reporter stability analysis (dual-color cyclin K–eGFP reporter); assay type: cell-based, human; details: source data sheet correlations; read-out: DC50
Method in brief: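 First, reporter-bearing HEK293T–Cas9 cells are plated at 1 × 10^6 ml^−1. Next, drug or vehicle is added for 5 h. Finally, geometric-mean eGFP and mCherry signals of round, mCherry-positive cells are measured cytometrically, and their ratio is referenced to the DMSO average.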

CDK9–cyclin T = biological target: T1, CDK9–cyclin T (Homo sapiens, UniProt P50750); assay: Lanthascreen kinase binding assay, CDK9; details: for Lanthascreen TR-FRET signal (raw ratio), sheet CDK9: duplicates
T1 construct: purchased Thermo Fisher
Experimental: (§1) Lanthascreen experiments were performed using commercially available reagents (Thermo Fisher) and according to the manufacturer’s instructions.

CDK12–cyclin K and DDB1 = biological target: T2, CDK12–cyclin K and DDB1 (Homo sapiens, UniProt Q16531+Q9NYV4, K965R); assay: TR-FRET ternary complex formation assay (compound titration); assay type: binding
T2 construct: His6–CDK12 (a.a. 713–1,052); full-length or beta-propeller B domain deletion (ΔBPB: a.a. 396–705 deleted) constructs of His6–DDB1ΔBPB, StrepII–Avi–DDB1, or His6–Spy–DDB1; made in house; host or cells: Trichoplusia ni High Five insect cells (baculovirus)
Method in brief: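 TR-FRET ratio 520/490 nm; 70 μs delay before read to suppress background.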

CDK2–cyclin A = biological target: T3, CDK2–cyclin A (Homo sapiens, UniProt P24941); assay: Lanthascreen kinase binding assay, CDK2; details: for Lanthascreen signal, sheet CDK2: raw replicates
T3 construct: purchased Thermo Fisher
Experimental: as §1

T1 sequence (P50750 whole entry): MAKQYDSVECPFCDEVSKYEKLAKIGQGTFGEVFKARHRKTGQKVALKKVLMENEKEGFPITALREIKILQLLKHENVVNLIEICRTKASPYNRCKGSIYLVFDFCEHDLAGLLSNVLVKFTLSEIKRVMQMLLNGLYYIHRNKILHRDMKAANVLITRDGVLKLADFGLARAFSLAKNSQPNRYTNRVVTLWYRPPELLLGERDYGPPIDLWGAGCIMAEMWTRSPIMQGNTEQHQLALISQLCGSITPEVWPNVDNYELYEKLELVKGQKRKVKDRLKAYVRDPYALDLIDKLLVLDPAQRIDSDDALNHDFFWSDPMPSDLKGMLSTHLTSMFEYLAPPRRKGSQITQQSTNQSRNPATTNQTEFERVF
T1 sequence (O60563 whole entry partner): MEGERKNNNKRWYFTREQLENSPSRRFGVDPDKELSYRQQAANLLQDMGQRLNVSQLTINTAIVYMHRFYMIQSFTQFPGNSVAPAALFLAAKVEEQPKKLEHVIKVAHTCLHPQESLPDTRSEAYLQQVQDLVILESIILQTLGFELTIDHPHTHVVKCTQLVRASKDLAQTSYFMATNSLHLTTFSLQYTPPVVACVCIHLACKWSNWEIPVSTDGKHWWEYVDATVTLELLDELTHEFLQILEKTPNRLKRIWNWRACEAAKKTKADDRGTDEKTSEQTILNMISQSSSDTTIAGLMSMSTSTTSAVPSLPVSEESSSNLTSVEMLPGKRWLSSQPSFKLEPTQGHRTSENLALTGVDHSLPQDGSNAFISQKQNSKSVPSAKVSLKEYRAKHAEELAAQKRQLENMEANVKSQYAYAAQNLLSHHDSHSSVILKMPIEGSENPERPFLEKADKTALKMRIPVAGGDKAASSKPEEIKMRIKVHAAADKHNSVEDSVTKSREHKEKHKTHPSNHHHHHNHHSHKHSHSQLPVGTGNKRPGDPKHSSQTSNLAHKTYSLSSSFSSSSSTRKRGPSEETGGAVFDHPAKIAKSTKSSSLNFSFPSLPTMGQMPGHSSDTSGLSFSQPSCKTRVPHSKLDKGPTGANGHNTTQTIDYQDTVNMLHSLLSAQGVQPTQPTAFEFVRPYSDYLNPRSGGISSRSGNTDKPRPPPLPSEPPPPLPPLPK
T2 sequence (Q9NYV4 713-1052 K965R): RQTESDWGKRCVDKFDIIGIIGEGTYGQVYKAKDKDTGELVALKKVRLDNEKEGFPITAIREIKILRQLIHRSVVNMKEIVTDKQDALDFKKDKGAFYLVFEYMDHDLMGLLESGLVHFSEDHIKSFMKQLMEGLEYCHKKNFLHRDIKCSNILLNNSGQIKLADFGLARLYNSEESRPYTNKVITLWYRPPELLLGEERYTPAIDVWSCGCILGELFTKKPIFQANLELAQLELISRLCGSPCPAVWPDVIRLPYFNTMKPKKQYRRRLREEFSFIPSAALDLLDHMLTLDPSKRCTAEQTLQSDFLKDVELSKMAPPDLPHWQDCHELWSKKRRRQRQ
T2 sequence (O75909 1-267 partner): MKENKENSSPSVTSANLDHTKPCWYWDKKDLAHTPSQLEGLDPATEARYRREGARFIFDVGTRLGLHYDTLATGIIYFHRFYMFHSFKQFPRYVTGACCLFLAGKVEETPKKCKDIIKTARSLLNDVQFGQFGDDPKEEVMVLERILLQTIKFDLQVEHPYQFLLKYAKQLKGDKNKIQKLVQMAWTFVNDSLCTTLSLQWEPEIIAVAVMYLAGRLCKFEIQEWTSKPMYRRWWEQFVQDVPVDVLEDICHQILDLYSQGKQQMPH
T2 sequence (Q16531 whole entry): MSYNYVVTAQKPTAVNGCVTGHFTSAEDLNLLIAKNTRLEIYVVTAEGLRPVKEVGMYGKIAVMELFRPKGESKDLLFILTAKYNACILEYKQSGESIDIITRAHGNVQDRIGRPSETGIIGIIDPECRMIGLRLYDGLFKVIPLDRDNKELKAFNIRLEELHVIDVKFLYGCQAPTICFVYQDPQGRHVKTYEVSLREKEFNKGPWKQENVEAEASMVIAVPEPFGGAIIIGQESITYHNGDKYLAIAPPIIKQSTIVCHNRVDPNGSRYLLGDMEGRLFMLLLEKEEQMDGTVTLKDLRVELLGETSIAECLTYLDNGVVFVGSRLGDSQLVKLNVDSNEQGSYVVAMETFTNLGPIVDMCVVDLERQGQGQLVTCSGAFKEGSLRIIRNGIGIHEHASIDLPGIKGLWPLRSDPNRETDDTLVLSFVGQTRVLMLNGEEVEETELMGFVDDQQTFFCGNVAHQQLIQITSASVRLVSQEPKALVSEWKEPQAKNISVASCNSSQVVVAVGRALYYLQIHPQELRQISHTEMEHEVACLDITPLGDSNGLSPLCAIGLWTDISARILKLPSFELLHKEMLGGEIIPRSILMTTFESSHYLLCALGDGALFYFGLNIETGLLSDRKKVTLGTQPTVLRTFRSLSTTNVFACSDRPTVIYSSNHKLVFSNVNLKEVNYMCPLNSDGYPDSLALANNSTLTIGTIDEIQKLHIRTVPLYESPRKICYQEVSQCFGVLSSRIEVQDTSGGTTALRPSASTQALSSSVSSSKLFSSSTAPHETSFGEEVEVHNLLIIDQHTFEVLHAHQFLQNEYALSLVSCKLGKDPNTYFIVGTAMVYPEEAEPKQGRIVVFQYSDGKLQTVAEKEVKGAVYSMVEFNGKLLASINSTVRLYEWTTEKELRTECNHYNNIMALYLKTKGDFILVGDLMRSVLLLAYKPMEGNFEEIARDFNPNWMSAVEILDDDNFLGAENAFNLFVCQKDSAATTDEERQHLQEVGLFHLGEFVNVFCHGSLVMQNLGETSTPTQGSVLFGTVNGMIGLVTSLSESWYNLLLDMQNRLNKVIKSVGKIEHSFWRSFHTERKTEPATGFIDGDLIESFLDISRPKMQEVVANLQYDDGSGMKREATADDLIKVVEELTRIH

SMILES: Cc1cccc(Nc2nc(CC(=O)Nc3ncc(C)s3)cs2)n1 [HQ461]
- DC50 [1]: 0.493 µM
- IC50 (CDK9–cyclin T; Lanthascreen, read-out: CDK9 inhibition): > 10000 nM
- IC50 (CDK9–cyclin T; Supplementary Table 2, read-out: Lanthascreen IC50 [nM] CDK9): > 10000 nM
- Lanthascreen TR-FRET signal (raw ratio), sheet CDK9 (CDK9–cyclin T; compound 0.038147 nM, second titration set (r13)): 0.01409 and 0.01416
- Lanthascreen TR-FRET signal (raw ratio), sheet CDK9 (CDK9–cyclin T; compound 0.152588 nM, second titration set (r13)): 0.01468 and 0.01413
- Lanthascreen TR-FRET signal (raw ratio), sheet CDK9 (CDK9–cyclin T; compound 0.610352 nM, second titration set (r13)): 0.01464 and 0.01471
- Lanthascreen TR-FRET signal (raw ratio), sheet CDK9 (CDK9–cyclin T; compound 1.02544 nM, first titration set (r1)): 0.013 and 0.01376
- Lanthascreen TR-FRET signal (raw ratio), sheet CDK9 (CDK9–cyclin T; compound 3.15521 nM, first titration set (r1)): 0.01501 and 0.01445
- Lanthascreen TR-FRET signal (raw ratio), sheet CDK9 (CDK9–cyclin T; compound 9.46563 nM, first titration set (r1)): 0.01436 and 0.01453
- Lanthascreen TR-FRET signal (raw ratio), sheet CDK9 (CDK9–cyclin T; compound 9.76563 nM, second titration set (r13)): 0.01408 and 0.01448
- Lanthascreen TR-FRET signal (raw ratio), sheet CDK9 (CDK9–cyclin T; compound 31.5521 nM, first titration set (r1)): 0.01309 and 0.01275
- Lanthascreen TR-FRET signal (raw ratio), sheet CDK9 (CDK9–cyclin T; compound 39.0625 nM, second titration set (r13)): 0.01393 and 0.01389
- Lanthascreen TR-FRET signal (raw ratio), sheet CDK9 (CDK9–cyclin T; compound 99.3891 nM, first titration set (r1)): 0.01397 and 0.01502
- Lanthascreen TR-FRET signal (raw ratio), sheet CDK9 (CDK9–cyclin T; compound 156.25 nM, second titration set (r13)): 0.01402 and 0.0137
- Lanthascreen TR-FRET signal (raw ratio), sheet CDK9 (CDK9–cyclin T; compound 315.521 nM, first titration set (r1)): 0.01247 and 0.01162
- Lanthascreen TR-FRET signal (raw ratio), sheet CDK9 (CDK9–cyclin T; compound 625 nM, second titration set (r13)): 0.01303 and 0.01336
- Lanthascreen TR-FRET signal (raw ratio), sheet CDK9 (CDK9–cyclin T; compound 2500 nM, second titration set (r13)): 0.01244 and 0.01203
- Lanthascreen TR-FRET signal (raw ratio), sheet CDK9 (CDK9–cyclin T; compound 3155.21 nM, first titration set (r1)): 0.007103 and 0.007563
- Lanthascreen TR-FRET signal (raw ratio), sheet CDK9 (CDK9–cyclin T; compound 10000 nM, second titration set (r13)): 0.01094 and 0.01086
- Lanthascreen TR-FRET signal (raw ratio), sheet CDK9 (CDK9–cyclin T; compound 10002 nM, first titration set (r1)): 0.01268 and 0.01049
- TR-FRET signal (CDK12–cyclin K and DDB1; compound concentration 0.468 nM): 0.1979 and 0.1985 and 0.1957
- TR-FRET signal (CDK12–cyclin K and DDB1; compound concentration 2.16 nM): 0.2749 and 0.2453 and 0.2785
- TR-FRET signal (CDK12–cyclin K and DDB1; compound concentration 3.6 nM): 0.4419 and 0.4117 and 0.4333 and 0.5417 and 0.5175
- TR-FRET signal (CDK12–cyclin K and DDB1; compound concentration 7.92001 nM): 0.7305 and 0.6786 and 0.7304
- TR-FRET signal (CDK12–cyclin K and DDB1; compound concentration 15.84 nM): 1.213 and 1.144 and 1.137 and 1.215 and 1.133
- TR-FRET signal (CDK12–cyclin K and DDB1; compound concentration 30.96 nM): 1.762 and 1.75 and 1.847
- TR-FRET signal (CDK12–cyclin K and DDB1; compound concentration 62.6401 nM): 2.4486 and 2.52 and 2.516 and 2.475 and 2.32
- TR-FRET signal (CDK12–cyclin K and DDB1; compound concentration 125.28 nM): 3.077 and 3.1244 and 3.038
- TR-FRET signal (CDK12–cyclin K and DDB1; compound concentration 244.8 nM): 3.496 and 3.492 and 3.484 and 3.752 and 3.554
- TR-FRET signal (CDK12–cyclin K and DDB1; compound concentration 993.601 nM): 3.886 and 3.922 and 3.8902 and 4.115 and 3.832
- TR-FRET signal (CDK12–cyclin K and DDB1; compound concentration 2001.6 nM): 3.927 and 3.936 and 3.967 and 4.085 and 3.674
- EC50 (CDK12–cyclin K and DDB1; in vitro complex formation, 50 nM CDK12–cyclin K, 100 nM DDB1, text and figures, read-out: TR-FRET EC50): 0.043 ± 0.013 µM
- EC50 (CDK12–cyclin K and DDB1; sheet MOESM7, read-out: log TR-FRET EC50 (converted)): 0.0427 µM
- EC50 (CDK12–cyclin K and DDB1; source data sheet correlations, read-out: TR-FRET EC50): 0.0427 µM
- Lanthascreen signal, sheet CDK2 (CDK2–cyclin A; Compound 0.038147 nM, experiment r13-r23): 0.01269 and 0.01279
- Lanthascreen signal, sheet CDK2 (CDK2–cyclin A; Compound 0.152588 nM, experiment r13-r23): 0.01374 and 0.01273
- Lanthascreen signal, sheet CDK2 (CDK2–cyclin A; Compound 0.610352 nM, experiment r13-r23): 0.01372 and 0.01331
- Lanthascreen signal, sheet CDK2 (CDK2–cyclin A; Compound 1.02544 nM, experiment r1-r11): 0.009631 and 0.01041
- Lanthascreen signal, sheet CDK2 (CDK2–cyclin A; Compound 3.15521 nM, experiment r1-r11): 0.01056 and 0.008974
- Lanthascreen signal, sheet CDK2 (CDK2–cyclin A; Compound 9.46563 nM, experiment r1-r11): 0.009472 and 0.0097
- Lanthascreen signal, sheet CDK2 (CDK2–cyclin A; Compound 9.76563 nM, experiment r13-r23): 0.01395 and 0.01369
- Lanthascreen signal, sheet CDK2 (CDK2–cyclin A; Compound 31.5521 nM, experiment r1-r11): 0.0114 and 0.01012
- Lanthascreen signal, sheet CDK2 (CDK2–cyclin A; Compound 39.0625 nM, experiment r13-r23): 0.01257 and 0.0126
- Lanthascreen signal, sheet CDK2 (CDK2–cyclin A; Compound 99.3891 nM, experiment r1-r11): 0.01033 and 0.009406
- Lanthascreen signal, sheet CDK2 (CDK2–cyclin A; Compound 156.25 nM, experiment r13-r23): 0.01318 and 0.01113
- Lanthascreen signal, sheet CDK2 (CDK2–cyclin A; Compound 315.521 nM, experiment r1-r11): 0.009414 and 0.009861
- Lanthascreen signal, sheet CDK2 (CDK2–cyclin A; Compound 625 nM, experiment r13-r23): 0.01295 and 0.0131
- Lanthascreen signal, sheet CDK2 (CDK2–cyclin A; Compound 2500 nM, experiment r13-r23): 0.01303 and 0.01312
- Lanthascreen signal, sheet CDK2 (CDK2–cyclin A; Compound 3155.21 nM, experiment r1-r11): 0.008384 and 0.008441
- Lanthascreen signal, sheet CDK2 (CDK2–cyclin A; Compound 10000 nM, experiment r13-r23): 0.01252 and 0.01202
- Lanthascreen signal, sheet CDK2 (CDK2–cyclin A; Compound 10002 nM, experiment r1-r11): 0.01042 and 0.01107
- IC50 (CDK2–cyclin A; Lanthascreen, read-out: CDK2 inhibition): > 10000 nM
- IC50 (CDK2–cyclin A; Supplementary Table 2, read-out: Lanthascreen IC50 [nM] CDK2): > 10000 nM
